Source: patent US9200051B2, “Peptide compound” (TAKEDA PHARMACEUTICAL COMPANY LIMITED, priority 2013, dated 2015)
Read-outs that look alike come from different tables or passages of the source. Square brackets hold non-standard residues; d marks the D form. Peptide text beside a SMILES is read from it. * marks the point of attachment. Tyr(Nα-amidino) = N=C(N)N[C@@H](Cc1ccc(O)cc1)C(=O)*; NMeY = CN[C@@H](Cc1ccc(O)cc1)C(=O)O; αMeF = C[C@](N)(Cc1ccccc1)C(=O)O; Cha = N[C@@H](CC1CCCCC1)C(=O)O; Aib = CC(C)(N)C(=O)O

What was measured:
Type in all cases: cell-based
human GIPR = biological target: T1, human GIPR (Homo sapiens, UniProt P48546); assay: Agonist activity against human GIPR, CRE-luciferase reporter assay (rise in intracellular cAMP) in hGIPR/CRE-LUC/CHO-K1 cells
T1 construct: expressed in transfected cells; host or cells: CHO-K1 (CRE-LUC/CHO-K1), plasmid hGIPR/pMSRα-neo
T1 sequence (P48546 22-466): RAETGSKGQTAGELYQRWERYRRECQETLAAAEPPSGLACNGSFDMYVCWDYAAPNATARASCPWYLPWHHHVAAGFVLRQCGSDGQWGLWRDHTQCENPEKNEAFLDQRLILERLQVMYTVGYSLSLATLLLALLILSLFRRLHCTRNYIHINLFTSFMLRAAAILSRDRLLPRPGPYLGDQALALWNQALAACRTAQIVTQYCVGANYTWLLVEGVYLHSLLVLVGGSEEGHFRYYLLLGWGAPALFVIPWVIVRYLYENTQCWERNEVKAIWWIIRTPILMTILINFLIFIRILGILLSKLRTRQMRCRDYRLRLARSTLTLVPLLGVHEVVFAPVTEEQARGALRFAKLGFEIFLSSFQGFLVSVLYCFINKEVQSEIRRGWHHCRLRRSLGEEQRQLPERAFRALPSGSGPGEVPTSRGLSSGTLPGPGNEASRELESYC
Source text: (§1) Evaluation of agonist activity against human GIPR, human GLP-1R and human glucagon R using rise in intracellular cAMP concentration as index
The human GIPR gene having a sequence identical to the sequence of GenBank Accession No. U39231 was cloned into pMSRα-neo vector to prepare hGIPR/pMSRα-neo.
(§2) The luciferase reporter gene having an upstream cAMP response sequence was introduced to CHO-K1 cells to construct CRE-LUC/CHO-K1 cells.
The plasmid hGIPR/pMSRα-neo obtained in (1) was introduced to the CRE-LUC/CHO-K1 cells obtained in (2) to obtain transformants. Next, a cell line induced to express luciferase, i.e., hGIPR/CRE-LUC/CHO-K1 cells, were selected from the obtained transformants by the addition of GIP.
(§3) The hGIPR/CRE-LUC/CHO-K1 cells were inoculated at a cell density of 25 μL/well (5×10^4 cells/well) to a 384-well white plate (Corning), and cultured overnight in Ham F12 medium containing 10% fetal bovine serum, 100 U/mL penicillin and 100 μg/mL streptomycin in a CO2 incubator of 37° C. A medium containing a test compound was added at a concentration of 5 μL/well to the cells, and the resultant cells were incubated for 4 hours in a CO2 incubator of 37° C. to give the final concentration of 1 μM. PicaGene LT7.5 (Toyo Ink Co., Ltd.) was added thereto at a concentration of 30 μL/well, and the mixture was shaken with light shielded. After 30 minutes, the luciferase activity was measured using a plate reader Envision (PerkinElmer). The luciferase activity in the presence of 10 nM GIP was defined as 100%, and the luciferase activity from the addition of DMSO instead of the test compound was defined as 0%. The GIPR agonist activity was calculated with a rise in intracellular cAMP concentration as an index.

human GLP-1R = biological target: T2, human GLP-1R (Homo sapiens, UniProt P43220); assay: Agonist activity against human GLP-1R, CRE-luciferase reporter assay in hGLP-1R/CRE-luc/CHO-K1 cells
T2 construct: expressed in transfected cells; host or cells: CHO-K1, plasmids hGLP-1/pIRESneo3 and Cre-luc(Zeo)
Source text: as §1
Four copies of the cAMP response sequence and the Zeocin resistance gene were introduced to pGL3(R2.2)-Basic Vector (Promega) to construct Cre-luc(Zeo) reporter plasmid.
The human GLP-1R gene having a sequence identical to the sequence of GenBank Accession No. NM_002062 was cloned into pIRESneo3 vector to prepare hGLP-1/pIRESneo3.
The Cre-luc(Zeo) obtained in (3) and the plasmid hGLP-1/pIRESneo3 obtained in (5) were introduced to CHO-K1 cells to obtain transformants. Next, a cell line induced to express luciferase, i.e., hGLP-1R/CRE-luc/CHO-K1 cells, were selected from the obtained transformants by the addition of GLP-1.
as §3
The GLP-1R agonist activity was assayed in the same way as above using the hGLP-1R/CRE-luc/CHO-K1 cells. The luciferase activity in the presence of 10 nM GLP-1 was defined as 100%, and the luciferase activity from the addition of DMSO instead of the test compound was defined as 0%. The GLP-1R agonist activity was calculated with a rise in intracellular cAMP concentration as an index.

human glucagon R = biological target: T3, human glucagon R (Homo sapiens, UniProt P47871); assay: Agonist activity against human glucagon R, CRE-luciferase reporter assay in hGlucagonR/CRE-LUC/CHO-K1 cells
T3 construct: expressed in transfected cells; host or cells: CHO-K1 (CRE-LUC/CHO-K1), plasmid hGlucagonR/pMSRα-neo
Source text: as §1, §2
The human glucagon R gene having a sequence identical to the sequence of GenBank Accession No. NM_000160 was cloned into pMSRα-neo vector to prepare hGlucagonR/pMSRα-neo.
The plasmid hGlucagonR/pMSRα-neo obtained in (7) was introduced to the CRE-LUC/CHO-K1 cells obtained in (2) to obtain transformants. Next, a cell line induced to express luciferase, i.e., hGlucagonR/CRE-LUC/CHO-K1 cells, were selected from the obtained transformants by the addition of glucagon.
as §3
The glucagon R agonist activity was assayed in the same way as above using the hGlucagonR/CRE-LUC/CHO-K1 cells. The luciferase activity in the presence of 10 nM glucagon was defined as 100%, and the luciferase activity from the addition of DMSO instead of the test compound was defined as 0%. The glucagon agonist activity was calculated with a rise in intracellular cAMP concentration as an index.

T3 sequence (P47871 26-477): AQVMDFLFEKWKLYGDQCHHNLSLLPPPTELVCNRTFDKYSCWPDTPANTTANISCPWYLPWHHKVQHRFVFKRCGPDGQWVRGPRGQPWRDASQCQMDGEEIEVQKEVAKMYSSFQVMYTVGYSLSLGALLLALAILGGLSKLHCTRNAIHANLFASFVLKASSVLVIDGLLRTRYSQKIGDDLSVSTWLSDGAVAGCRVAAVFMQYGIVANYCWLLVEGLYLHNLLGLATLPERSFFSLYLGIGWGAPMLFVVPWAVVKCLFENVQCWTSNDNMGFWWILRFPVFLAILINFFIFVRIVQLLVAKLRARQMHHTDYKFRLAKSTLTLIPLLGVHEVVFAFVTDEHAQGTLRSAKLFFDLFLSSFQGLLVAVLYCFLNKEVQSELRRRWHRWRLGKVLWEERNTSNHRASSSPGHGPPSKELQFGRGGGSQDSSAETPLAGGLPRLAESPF
T2 sequence (P43220 24-463): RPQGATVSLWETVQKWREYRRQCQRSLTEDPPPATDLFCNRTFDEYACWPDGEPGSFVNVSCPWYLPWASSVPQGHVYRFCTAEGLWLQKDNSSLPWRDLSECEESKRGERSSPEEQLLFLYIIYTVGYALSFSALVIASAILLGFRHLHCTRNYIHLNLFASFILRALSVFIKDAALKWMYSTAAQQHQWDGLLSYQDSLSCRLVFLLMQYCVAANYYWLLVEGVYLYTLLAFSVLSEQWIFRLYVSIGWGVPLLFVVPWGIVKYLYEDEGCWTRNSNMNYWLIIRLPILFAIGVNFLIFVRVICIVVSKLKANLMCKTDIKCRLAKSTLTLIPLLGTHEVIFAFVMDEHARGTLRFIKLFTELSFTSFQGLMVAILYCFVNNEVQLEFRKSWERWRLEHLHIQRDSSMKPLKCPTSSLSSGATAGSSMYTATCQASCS

Row | Structure (SMILES) | EC50 (human GIPR) [nM] | EC50 (human GLP-1R) [nM] | EC50 (human glucagon R) [nM] | EC50 (human GIPR; hGIPR/CRE-LUC/CHO-K1 cells, 4 hours incubation, 10 nM GIP = 100%, read-out: Agonist activity (EC50) hGIPR) [nM] | EC50 (human GLP-1R; hGLP-1R/CRE-luc/CHO-K1 cells, 4 hours incubation, 10 nM GLP-1 = 100%, read-out: Agonist activity (EC50) hGLP-1R) [nM] | EC50 (human glucagon R; hGlucagonR/CRE-LUC/CHO-K1 cells, 4 hours incubation, 10 nM glucagon = 100%, read-out: Agonist activity (EC50) hGCGR) [nM]
1 | CC[C@H](C)[C@H](NC(=O)C(C)(C)NC(=O)[C@H](Cc1ccc(O)cc1)NC(=O)[C@H](CC(=O)O)NC(=O)[C@H](CO)NC(=O)[C@@H](NC(=O)[C@](C)(Cc1ccccc1)NC(=O)[C@@H](NC(=O)CNC(=O)[C@H](CCC(=O)O)NC(=O)C(C)(C)NC(=O)[C@H](Cc1ccc(O)cc1)NC(=N)N)[C@@H](C)O)[C@@H](C)O)C(=O)NC(C)(C)C(=O)N[C@@H](CC(C)C)C(=O)N[C@@H](CC(=O)O)C(=O)N[C@@H](CCCCN)C(=O)N[C@@H](CCC(N)=O)C(=O)N[C@@H](C)C(=O)N[C@@H](CCC(N)=O)C(=O)N[C@@H](C)C(=O)N[C@@H](CCC(=O)O)C(=O)N[C@@H](Cc1ccccc1)C(=O)N[C@H](C(=O)N[C@@H](CCCCN)C(=O)N[C@@H](Cc1c[nH]c2ccccc12)C(=O)N[C@@H](CC(C)C)C(=O)N[C@@H](CC(C)C)C(=O)N[C@@H](CCCCN)C(=O)NCC(=O)NCC(=O)N1CCC[C@H]1C(=O)N[C@@H](CO)C(=O)N[C@@H](CO)C(=O)NCC(=O)N[C@@H](C)C(=O)N1CCC[C@H]1C(=O)N1CCC[C@H]1C(=O)N1CCC[C@H]1C(=O)N[C@@H](CO)C(=O)N[C@@H](CCCCN)C(N)=O)C(C)C [Example 22] ({Tyr(Nα-amidino)}-[Aib]EGT[αMeF]TSDY[Aib]I[Aib]LDKQAQAEFVKWLLKGGPSSGAPPPSK-NH2) | 0.019 | 0.035 | > 1000 | – | – | –
2 | CC[C@H](C)[C@H](NC(=O)[C@H](C)NC(=O)[C@H](Cc1ccc(O)cc1)NC(=O)[C@H](CC(=O)O)NC(=O)[C@H](CO)NC(=O)[C@@H](NC(=O)[C@](C)(Cc1ccccc1)NC(=O)[C@@H](NC(=O)CNC(=O)[C@H](CCC(=O)O)NC(=O)C(C)(C)NC(=O)[C@@H](N)Cc1ccc(O)cc1)[C@@H](C)O)[C@@H](C)O)C(=O)NC(C)(C)C(=O)N[C@@H](CC(C)C)C(=O)N[C@@H](CC(=O)O)C(=O)N[C@@H](CCCCN)C(=O)N[C@@H](CCC(N)=O)C(=O)N[C@@H](C)C(=O)N[C@@H](CCC(N)=O)C(=O)N[C@@H](CO)C(=O)N[C@@H](CCC(=O)O)C(=O)N[C@@H](Cc1ccccc1)C(=O)N[C@H](C(=O)N[C@@H](CCCCN)C(=O)N[C@@H](Cc1c[nH]c2ccccc12)C(=O)N[C@@H](CC(C)C)C(=O)N[C@@H](CC(C)C)C(=O)N[C@@H](CCCCN)C(=O)NCC(=O)NCC(=O)N1CCC[C@H]1C(=O)N[C@@H](CO)C(=O)N[C@@H](CO)C(=O)NCC(=O)N[C@@H](C)C(=O)N1CCC[C@H]1C(=O)N1CCC[C@H]1C(=O)N1CCC[C@H]1C(=O)N[C@@H](CO)C(N)=O)C(C)C [Example 7] (H-Y[Aib]EGT[αMeF]TSDYAI[Aib]LDKQAQSEFVKWLLKGGPSSGAPPPS-NH2) | – | – | – | 0.0069 | 0.0088 | > 1000
3 | CC(C)C[C@H](NC(=O)[C@H](CC(C)C)NC(=O)[C@H](Cc1c[nH]c2ccccc12)NC(=O)[C@H](CCCCN)NC(=O)[C@@H](NC(=O)[C@H](Cc1ccccc1)NC(=O)[C@H](CCC(=O)O)NC(=O)[C@H](C)NC(=O)[C@H](CCC(N)=O)NC(=O)[C@H](C)NC(=O)[C@H](CCC(N)=O)NC(=O)[C@H](CCCCN)NC(=O)[C@H](CC(=O)O)NC(=O)[C@H](CC(C)C)NC(=O)[C@H](CC1CCCCC1)NC(=O)[C@H](CCCCN)NC(=O)C(C)(C)NC(=O)[C@H](Cc1ccc(O)cc1)NC(=O)[C@H](CC(=O)O)NC(=O)[C@H](CO)NC(=O)[C@@H](NC(=O)[C@](C)(Cc1ccccc1)NC(=O)[C@@H](NC(=O)CNC(=O)[C@H](CCC(=O)O)NC(=O)C(C)(C)NC(=O)[C@@H](N)Cc1ccc(O)cc1)[C@@H](C)O)[C@@H](C)O)C(C)C)C(=O)N[C@@H](CCCCN)C(=O)NCC(=O)NCC(=O)N1CCC[C@H]1C(=O)N[C@@H](CO)C(=O)N[C@@H](CO)C(=O)NCC(=O)N[C@@H](C)C(=O)N1CCC[C@H]1C(=O)N1CCC[C@H]1C(=O)N1CCC[C@H]1C(=O)N[C@@H](CO)C(=O)N[C@@H](CCCCN)C(N)=O [Example 16] (H-Y[Aib]EGT[αMeF]TSDY[Aib]K[Cha]LDKQAQAEFVKWLLKGGPSSGAPPPSK-NH2) | 0.0091 | 0.015 | > 1000 | – | – | –
4 | CC[C@H](C)[C@H](NC(=O)C(C)(C)NC(=O)[C@H](Cc1ccc(O)cc1)NC(=O)[C@H](CC(=O)O)NC(=O)[C@H](CO)NC(=O)[C@@H](NC(=O)[C@](C)(Cc1ccccc1)NC(=O)[C@@H](NC(=O)CNC(=O)[C@H](CCC(=O)O)NC(=O)C(C)(C)NC(=O)[C@@H](N)Cc1ccc(O)cc1)[C@@H](C)O)[C@@H](C)O)C(=O)NC(C)(C)C(=O)N[C@@H](CC(C)C)C(=O)N[C@@H](CC(=O)O)C(=O)N[C@@H](CCCCN)C(=O)N[C@@H](CCC(N)=O)C(=O)N[C@@H](C)C(=O)N[C@@H](CCC(N)=O)C(=O)N[C@@H](CO)C(=O)N[C@@H](CCC(=O)O)C(=O)N[C@@H](Cc1ccccc1)C(=O)N[C@H](C(=O)N[C@@H](CCCCN)C(=O)N[C@@H](Cc1c[nH]c2ccccc12)C(=O)N[C@@H](CC(C)C)C(=O)N[C@@H](CC(C)C)C(=O)N[C@@H](CCCCN)C(=O)NCC(=O)NCC(=O)N1CCC[C@H]1C(=O)N[C@@H](CO)C(=O)N[C@@H](CO)C(=O)NCC(=O)N[C@@H](C)C(=O)N1CCC[C@H]1C(=O)N1CCC[C@H]1C(=O)N1CCC[C@H]1C(=O)N[C@@H](CO)C(N)=O)C(C)C [Example 8] (H-Y[Aib]EGT[αMeF]TSDY[Aib]I[Aib]LDKQAQSEFVKWLLKGGPSSGAPPPS-NH2) | 0.008 | 0.014 | > 1000 | – | – | –
5 | CC[C@H](C)[C@H](NC(=O)C(C)(C)NC(=O)[C@H](Cc1ccc(O)cc1)NC(=O)[C@H](CC(=O)O)NC(=O)[C@H](CO)NC(=O)[C@@H](NC(=O)[C@](C)(Cc1ccccc1)NC(=O)[C@@H](NC(=O)CNC(=O)[C@H](CCC(=O)O)NC(=O)C(C)(C)NC(=O)[C@H](Cc1ccc(O)cc1)NC)[C@@H](C)O)[C@@H](C)O)C(=O)NC(C)(C)C(=O)N[C@@H](CC(C)C)C(=O)N[C@@H](CC(=O)O)C(=O)N[C@@H](CCCCN)C(=O)N[C@@H](CCC(N)=O)C(=O)N[C@@H](C)C(=O)N[C@@H](CCC(N)=O)C(=O)N[C@@H](C)C(=O)N[C@@H](CCC(=O)O)C(=O)N[C@@H](Cc1ccccc1)C(=O)N[C@H](C(=O)N[C@@H](CCCCN)C(=O)N[C@@H](Cc1c[nH]c2ccccc12)C(=O)N[C@@H](CC(C)C)C(=O)N[C@@H](CC(C)C)C(=O)N[C@@H](CCCCN)C(=O)NCC(=O)NCC(=O)N1CCC[C@H]1C(=O)N[C@@H](CO)C(=O)N[C@@H](CO)C(=O)NCC(=O)N[C@@H](C)C(=O)N1CCC[C@H]1C(=O)N1CCC[C@H]1C(=O)N1CCC[C@H]1C(=O)N[C@@H](CO)C(=O)N[C@@H](CCCCN)C(N)=O)C(C)C [Example 23] (H-[NMeY][Aib]EGT[αMeF]TSDY[Aib]I[Aib]LDKQAQAEFVKWLLKGGPSSGAPPPSK-NH2) | 0.016 | 0.016 | – | – | – | –
